This experiment concerns the target T1, human GIP receptor (Homo sapiens, UniProt P48546).
T1 construct: host or cells: COS-7, transient transfection (calcium phosphate), cDNA in pCMV-Script
T1 sequence (P48546 22-466): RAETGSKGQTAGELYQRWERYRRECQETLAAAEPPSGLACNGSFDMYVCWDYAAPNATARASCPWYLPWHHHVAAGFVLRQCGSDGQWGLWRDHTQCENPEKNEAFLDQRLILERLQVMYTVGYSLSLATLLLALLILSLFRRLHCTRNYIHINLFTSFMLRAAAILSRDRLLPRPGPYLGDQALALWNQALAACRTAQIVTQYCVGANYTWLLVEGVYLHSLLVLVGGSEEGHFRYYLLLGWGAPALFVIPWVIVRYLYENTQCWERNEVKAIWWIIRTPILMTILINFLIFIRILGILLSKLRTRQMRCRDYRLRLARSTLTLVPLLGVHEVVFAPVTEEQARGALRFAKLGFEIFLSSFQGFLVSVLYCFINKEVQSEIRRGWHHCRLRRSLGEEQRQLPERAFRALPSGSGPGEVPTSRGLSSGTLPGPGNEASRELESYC
Nature of the experiment: cAMP accumulation assay, agonism (ligand alone). Conditions: COS-7 cells, Table 1; for Emax: COS-7, intrinsic cAMP activity; for EC50: read-out: cAMP agonism nM (EC50). In kind it is cell-based. The procedure:
COS-7 cells were cultured at 10% CO2 and 37° C. in Dulbecco's modified Eagle's medium 1885 supplemented with 10% fetal bovine serum, 2 mM glutamine, 180 units/ml penicillin, and 45 µg/ml streptomycin. Transient transfection of the COS-7 cells for cAMP accumulation and competition binding was performed using the calcium phosphate precipitation method with the addition of chloroquine^46-47.
Transient transfected COS-7 cells expressing the human GIP receptor were seeded in white 96-well plates with a density of 3.5*10^4/well. The day after, the cells were washed twice with Hepes buffered saline (HBS) buffer and incubated with HBS and 1 mM 3-isobutyl-1-methylxanthine (IBMX) for 30 min at 37° C. To test for agonistic properties, ligands were added and incubated for 30 min at 37° C. In order to test for antagonistic properties, the cells were preincubated with the antagonists for 10 min prior to the addition of the agonist and subsequent incubated for 20 additional min. The HitHunter™ cAMP XS assay (DiscoveRx) was carried out according to the manufacturer's instructions.
IC50, EC50, and Ki values were determined by nonlinear regression. These were carried out with the GraphPad Prism 6.0 software (GraphPad, San Diego, Calif., USA) and Microsoft Excel™. Ki values were based on the formula for one class of binding sites in homologous competition binding studies and the Cheng Prussoffs formula, respectively (DeBlasi et al., 1989). To determine the HSA binding potential, the fold change in affinity (as determined by IC50) was calculated as IC50 (plus HSA)/IC50 (minus HSA).
A general note: Cyclic AMP is a second messenger, typically raised through Gs and lowered through Gi signalling.

Structures are written as SMILES. Peptide text beside a SMILES is read from it. * marks the point of attachment. Lauroyl = CCCCCCCCCCCC(=O)*

In turn, `CCCCCCCCCCCCCCCC(=O)NCCCC[C@H](NC(=O)[C@H](CCC(N)=O)NC(=O)[C@H](C)NC(=O)[C@H](CC(C)C)NC(=O)[C@H](CC(C)C)NC(=O)[C@H](Cc1c[nH]c2ccccc12)NC(=O)[C@H](CC(N)=O)NC(=O)[C@@H](NC(=O)[C@H](Cc1ccccc1)NC(=O)[C@H](CC(=O)O)NC(=O)[C@H](CCC(N)=O)NC(=O)[C@H](CCC(N)=O)NC(=O)[C@H](Cc1c[nH]cn1)NC(=O)[C@@H](NC(=O)[C@H](CCCCN)NC(=O)[C@H](CC(=O)O)NC(=O)[C@H](CCSC)NC(=O)[C@H](C)NC(=O)[C@@H](NC(=O)[C@H](CO)NC(=O)[C@H](Cc1ccc(O)cc1)NC(=O)[C@H](CC(=O)O)NC(=O)[C@H](CO)NC(=O)[C@@H](NC(=O)[C@H](Cc1ccccc1)NC(=O)[C@@H](NC(=O)CNC(=O)[C@@H](N)CCC(=O)O)[C@@H](C)O)[C@@H](C)CC)[C@@H](C)CC)[C@@H](C)CC)C(C)C)C(N)=O` [AT106, [hGIP(3-30)NH2—C16/30]] gave an Emax of 64%.

On to `CCCCCCCCCCCCCC(=O)NCCCC[C@H](NC(=O)[C@H](CCC(N)=O)NC(=O)[C@H](C)NC(=O)[C@H](CC(C)C)NC(=O)[C@H](CC(C)C)NC(=O)[C@H](Cc1c[nH]c2ccccc12)NC(=O)[C@H](CC(N)=O)NC(=O)[C@@H](NC(=O)[C@H](Cc1ccccc1)NC(=O)[C@H](CC(=O)O)NC(=O)[C@H](CCC(N)=O)NC(=O)[C@H](CCC(N)=O)NC(=O)[C@H](Cc1c[nH]cn1)NC(=O)[C@@H](NC(=O)[C@H](CCCCN)NC(=O)[C@H](CC(=O)O)NC(=O)[C@H](CCSC)NC(=O)[C@H](C)NC(=O)[C@@H](NC(=O)[C@H](CO)NC(=O)[C@H](Cc1ccc(O)cc1)NC(=O)[C@H](CC(=O)O)NC(=O)[C@H](CO)NC(=O)[C@@H](NC(=O)[C@H](Cc1ccccc1)NC(=O)[C@@H](NC(=O)CNC(=O)[C@@H](N)CCC(=O)O)[C@@H](C)O)[C@@H](C)CC)[C@@H](C)CC)[C@@H](C)CC)C(C)C)C(N)=O` [AT112, [hGIP(3-30)NH2—C14/30]], for which the Emax was 29%.

For the compound `CCCCCCCCCCCCCCCCCC(=O)NCCCC[C@H](NC(=O)[C@H](CCC(N)=O)NC(=O)[C@H](C)NC(=O)[C@H](CC(C)C)NC(=O)[C@H](CC(C)C)NC(=O)[C@H](Cc1c[nH]c2ccccc12)NC(=O)[C@H](CC(N)=O)NC(=O)[C@@H](NC(=O)[C@H](Cc1ccccc1)NC(=O)[C@H](CC(=O)O)NC(=O)[C@H](CCC(N)=O)NC(=O)[C@H](CCC(N)=O)NC(=O)[C@H](Cc1c[nH]cn1)NC(=O)[C@@H](NC(=O)[C@H](CCCCN)NC(=O)[C@H](CC(=O)O)NC(=O)[C@H](CCSC)NC(=O)[C@H](C)NC(=O)[C@@H](NC(=O)[C@H](CO)NC(=O)[C@H](Cc1ccc(O)cc1)NC(=O)[C@H](CC(=O)O)NC(=O)[C@H](CO)NC(=O)[C@@H](NC(=O)[C@H](Cc1ccccc1)NC(=O)[C@@H](NC(=O)CNC(=O)[C@@H](N)CCC(=O)O)[C@@H](C)O)[C@@H](C)CC)[C@@H](C)CC)[C@@H](C)CC)C(C)C)C(N)=O` [AT115, [hGIP(3-30)NH2—C18/30]], the EC50 is 134 nM.

Consider `CCCCCCCCCCCC(=O)NCCCC[C@H](NC(=O)[C@H](CCC(N)=O)NC(=O)[C@H](C)NC(=O)[C@H](CC(C)C)NC(=O)[C@H](CC(C)C)NC(=O)[C@H](Cc1c[nH]c2ccccc12)NC(=O)[C@H](CC(N)=O)NC(=O)[C@@H](NC(=O)[C@H](Cc1ccccc1)NC(=O)[C@H](CC(=O)O)NC(=O)[C@H](CCC(N)=O)NC(=O)[C@H](CCC(N)=O)NC(=O)[C@H](Cc1c[nH]cn1)NC(=O)[C@@H](NC(=O)[C@H](CCCCN)NC(=O)[C@H](CC(=O)O)NC(=O)[C@H](CCSC)NC(=O)[C@H](C)NC(=O)[C@@H](NC(=O)[C@H](CO)NC(=O)[C@H](Cc1ccc(O)cc1)NC(=O)[C@H](CC(=O)O)NC(=O)[C@H](CO)NC(=O)[C@@H](NC(=O)[C@H](Cc1ccccc1)NC(=O)[C@@H](N)[C@@H](C)O)[C@@H](C)CC)[C@@H](C)CC)[C@@H](C)CC)C(C)C)C(N)=O` [AT120, [hGIP(5-30)NH2—C12/30]], for which the Emax amounted to 0%.

As for `CCCCCCCCCCCCCC(=O)NCCCC[C@H](NC(=O)[C@H](CCC(N)=O)NC(=O)[C@H](C)NC(=O)[C@H](CC(C)C)NC(=O)[C@H](CC(C)C)NC(=O)[C@H](Cc1c[nH]c2ccccc12)NC(=O)[C@H](CC(N)=O)NC(=O)[C@@H](NC(=O)[C@H](Cc1ccccc1)NC(=O)[C@H](CC(=O)O)NC(=O)[C@H](CCC(N)=O)NC(=O)[C@H](CCC(N)=O)NC(=O)[C@H](Cc1c[nH]cn1)NC(=O)[C@@H](NC(=O)[C@H](CCCCN)NC(=O)[C@H](CC(=O)O)NC(=O)[C@H](CCSC)NC(=O)[C@H](C)NC(=O)[C@@H](NC(=O)[C@H](CO)NC(=O)[C@H](Cc1ccc(O)cc1)NC(=O)[C@H](CC(=O)O)NC(=O)[C@H](CO)NC(=O)[C@@H](NC(=O)[C@H](Cc1ccccc1)NC(=O)[C@@H](N)[C@@H](C)O)[C@@H](C)CC)[C@@H](C)CC)[C@@H](C)CC)C(C)C)C(N)=O` [AT123, [hGIP(5-30)NH2—C14/30]], the Emax was 64%.

For the compound `CCCCCCCCCCCCCCCC(=O)NCCCC[C@H](NC(=O)[C@H](CCC(N)=O)NC(=O)[C@H](C)NC(=O)[C@H](CC(C)C)NC(=O)[C@H](CC(C)C)NC(=O)[C@H](Cc1c[nH]c2ccccc12)NC(=O)[C@H](CC(N)=O)NC(=O)[C@@H](NC(=O)[C@H](Cc1ccccc1)NC(=O)[C@H](CC(=O)O)NC(=O)[C@H](CCC(N)=O)NC(=O)[C@H](CCC(N)=O)NC(=O)[C@H](Cc1c[nH]cn1)NC(=O)[C@@H](NC(=O)[C@H](CCCCN)NC(=O)[C@H](CC(=O)O)NC(=O)[C@H](CCSC)NC(=O)[C@H](C)NC(=O)[C@@H](NC(=O)[C@H](CO)NC(=O)[C@H](Cc1ccc(O)cc1)NC(=O)[C@H](CC(=O)O)NC(=O)[C@H](CO)NC(=O)[C@@H](NC(=O)[C@H](Cc1ccccc1)NC(=O)[C@@H](N)[C@@H](C)O)[C@@H](C)CC)[C@@H](C)CC)[C@@H](C)CC)C(C)C)C(N)=O` [AT126, [hGIP(5-30)NH2—C16/30]], the maximal response (Emax) stood at 75% and the EC50 was found to be 316 nM.

`CCCCCCCCCCCC(=O)NCCCC[C@H](NC(=O)[C@H](CCC(N)=O)NC(=O)[C@H](C)NC(=O)[C@H](CC(C)C)NC(=O)[C@H](CC(C)C)NC(=O)[C@H](Cc1c[nH]c2ccccc12)NC(=O)[C@H](CC(N)=O)NC(=O)[C@@H](NC(=O)[C@H](Cc1ccccc1)NC(=O)[C@H](CC(=O)O)NC(=O)[C@H](CCC(N)=O)NC(=O)[C@H](CCC(N)=O)NC(=O)[C@H](C)NC(=O)[C@@H](NC(=O)[C@H](CCCCN)NC(=O)[C@H](CCC(=O)O)NC(=O)[C@H](CCSC)NC(=O)[C@H](C)NC(=O)[C@@H](NC(=O)[C@H](CO)NC(=O)[C@H](Cc1ccc(O)cc1)NC(=O)[C@H](CC(=O)O)NC(=O)[C@H](CO)NC(=O)[C@@H](NC(=O)[C@H](Cc1ccccc1)NC(=O)[C@@H](NC(=O)CNC(=O)[C@@H](N)CCC(=O)O)[C@@H](C)O)[C@@H](C)CC)[C@@H](C)CC)[C@@H](C)CC)C(C)C)C(N)=O` [AT130, [hGIP(3-30)NH2[D15E; H18A]-C12/30]] (H-EGTFISDYSIAMEKIAQQDFVNWLLAQK(Lauroyl)-NH2; N-terminus assumed) had an Emax of 49%.

As a reminder, the Emax is the greatest response seen or fitted, relative to the assay's reference. What is called EC50 is the concentration needed to bring the measured effect to its halfway point.

For the origin of these results see patent US11572399B2, “Long-acting GIP peptide analogues” (University of Copenhagen, priority 2017, dated 2023).
